# Source: PMC6158189, “A pharmacological probe identifies cystathionine β-synthase as a new negative regulator for ferroptosis” (Cell Death & Disease, 2018)
# Columns and labels:
# HEK293T cells = experiment: cell death, FITC Annexin V kit, flow cytometry; type: cell-based; conditions: 40 μM, 12 h
# Procedure: Fig. 4 CH004 arrests the cell cycle at the S phase. a CH004 reduces the cell viability of HEK293T and HepG2 cells. HEK293T or HepG2 cells were treated with indicated concentrations of CH004 for 24 h before the cell number was analyzed using the CellTiter96® Aqueous One Solution Cell Proliferation Assay (Promega, Materials and Methods). The means at each concentration of one representative experiment are shown as percentages of DMSO (control, 100%). Means ± SDs (n = 3). b Overexpression of hCBS or knock-down of hCBS counteracts the growth inhibition exerted by CH004 in HEK293T cells. Indicated HEK293T stable cell lines were treated with the CH004 or DMSO for 24 h. Then, the cell viability was quantified with the CellTiter 96® Aqueous One Solution Cell Proliferation Assay under the standard protocol (Promega). […] The efficacy for CBS overexpression and knock-down in HEK293T cells was determined by Western blotting using an anti-CBS antibody (3E1, 1:2000; Abnova). c CH004 induces cell death in HEK293T and HepG2 cells. […] HEK293T cells were incubated with indicated compounds for 12 h, and the DNA content was quantified with propidium iodide to analyze the cell cycle distribution by flow cytometry (e). The cell cycle distributions for HEK293T-shNT and HEK293T-shCBS cells were accordingly analyzed and are shown in f. […]
# [1] = molecular target: T1, hCBS (GST-tagged CBS-413) (Homo sapiens, UniProt P35520); experiment: surface plasmon resonance (BIAcore T200); type: binding; conditions: 0.097–12.5 µM injected over hCBS-coated chip; read-out: KD (SPR)
# T1 construct: hCBS-413 (a C-terminal truncated hCBS 1–413); made in house; host or cells: E. coli BL21
# Procedure: Surface Plasmon Resonance assays (SPR) with a BIAcore T200 (GE Healthcare, Uppsala, Sweden) were used to observe the direct interaction between inhibitors and hCBS. The SPR assay was performed in running buffer (1× PBS with 0.05% P20) and the purified GST-tagged CBS-413 (500 μg/mL) was immobilized onto a flow cell of a CM5 sensor chip using a GST antibody coupling kit in running buffer. The KD values were determined with the Biacore evaluation 3.1 software.
# Figure S2. The mode of action of CH004 in inhibiting hCBS. […] After incubation with DMSO or CH004 at 10 μM for 40 min, hCBS (20 μM) was diluted 200-fold and the activity was measured according to the standard assay protocol (Materials and Methods). The data are presented as percentages of control (CTR; DMSO, 100%) and shown as means ± SDs (n = 5). The effects of 0.05 and 10 μM CH004 on hCBS (100 nM) without pre-incubation were defined as positive control (PC) and negative control (NC), respectively. (B) Inhibition of hCBS by CH004 as a function of PLP concentration with Cys (20 mM) together with Hcys (10 mM) as substrates (non-competitive inhibition constant αKi=15.2 ± 4.9 μM). […] The αKi or αKi’ values were calculated by using the non-linear fitting method for enzyme kinetics in GraphPad Prism 5. […] Dissociation constants for CH004 (KD) were calculated by using Biacore evaluation software (Materials and Methods).
# HepG2 cells = experiment: colony formation (crystal violet); type: cell-based, human; conditions: 24 h treatment
# Source text: Figure S12. CH004 inhibits the proliferation of cells via specifically targeting hCBS. (A-B) Dose-dependent curves of CH004 on the cell viability of CBS-stably-expressed HEK293T (A) or CBS-knockdown cells (B). Percentages of cell viability of CH004 obtained in Figure 4b were fitted to the non-linear equation using GraphPad Prism 5 to get the IC50 values of CH004 in respective cell lines (●, 293T-CBS WT cells; ○, 293T-EV; ▲, 293T-shCBS; △, 293T-shNT). Means ± SDs (n=3). […] HEK293T cells stably expressing of the lentiviral shRNA targeting CBS (shCBS) or control shRNA (shNT) were seeded at the density of ~ 3,000 cells per well in 96-well plates and the cell images in the bright field were acquired at indicated times by Image Xpress Micro® XLS (Molecular Devices, Sunnyvale, CA) under 10 × objective lens. Representative images of two independent experiments (n = 6 for each experiment) are shown in C. The cell numbers of images under 4 × objective lens of one representative experiment were calculated by Image Xpress Software and the data is shown in D. Means ± SDs (n=6). […] HepG2 cells were seeded in a 96-well plate at a density of 20000 cells per well and cultured for 24 h before treatment with indicated concentrations of CH004 for another 24 h. The colonies were stained with crystal violet and quantified by measuring the absorbance at 590 nm. […] Means ± SDs (n=3). […]
# T1 sequence (P35520 1-413): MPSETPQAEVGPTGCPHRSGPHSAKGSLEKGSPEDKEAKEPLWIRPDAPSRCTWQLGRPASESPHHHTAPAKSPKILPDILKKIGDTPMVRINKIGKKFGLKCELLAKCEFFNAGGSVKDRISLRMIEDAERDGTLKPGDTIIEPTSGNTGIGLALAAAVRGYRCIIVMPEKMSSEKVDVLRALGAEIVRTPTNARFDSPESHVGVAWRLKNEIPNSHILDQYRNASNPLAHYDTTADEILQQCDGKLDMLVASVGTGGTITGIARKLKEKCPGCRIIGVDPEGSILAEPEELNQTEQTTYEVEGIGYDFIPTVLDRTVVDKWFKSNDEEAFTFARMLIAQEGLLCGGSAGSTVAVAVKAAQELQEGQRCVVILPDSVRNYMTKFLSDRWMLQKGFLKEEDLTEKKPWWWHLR
smiles,measurement,setting,value
"Cn1nc(Cc2ccccc2)nc2c(=O)n(C)c(=O)nc1-2 [CH004, 3-benzyl-1,6-dimethylpyrimido[5,4-e][1,2,4]triazine-5,7(1H,6H)-dione]",increase in cell death,HEK293T cells,~ 30%
same,Kd,[1],0.6 ± 0.3 µM
same,IC50,HepG2 cells,~8 µM
same,IC50,"HepG2 cells; Homo sapiens, HepG2, 24 h",~7.9 µM
